Experiments:
Experiment in all cases: In vitro antibacterial evaluation: minimum inhibitory concentration (MIC), broth dilution method
Assay type in all cases: cell-based
[1] = system: Enterococcus sp.
Procedure, shortened: (§1)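 Susceptibility determined by NCCLS-recommended broth dilution (M7-A2), Muller-Hinton II […]. Concentration span 64-0.06 μg/mL, inoculum 5×10^5 CFU/mL. Isolates include strains resistant to methicillin, penicillin and/or vancomycin.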

[2] = system: Escherichia coli
Procedure, shortened: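 Following NCCLS approved standard M7-A2, compounds are serially diluted from 64 to 0.06 μg/mL in Muller-Hinton II […] and inoculated at 5×10^5 CFU/mL; the MIC is the minimum concentration at which growth is inhibited.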

[3] = system: Staphylococcus sp.; settings: 18 hours at 35° C.
Procedure, shortened: as §1

[4] = system: Streptococcus sp.; settings: 18 hours at 35° C.
Procedure, shortened: as §1

[5] = system: Escherichia coli; remark: listed apart in the source
[6] = Enterococcus faecalis (ATCC 29212)
[7] = Enterococcus faecalis (GC 2242), 18 hours at 35° C.
[8] = Enterococcus faecalis (GC 4552), 18 hours at 35° C.
[9] = Enterococcus faecalis (GC 4553)
[10] = Enterococcus faecalis (GC 4554)
[11] = broth dilution, 18 hours at 35° C., strain ATCC 29212
[12] = broth dilution, 18 hours at 35° C., strain GC 2242
[13] = broth dilution, 18 hours at 35° C., strain GC 2243
[14] = broth dilution, 18 hours at 35° C., strain GC 4552
[15] = broth dilution, 18 hours at 35° C., strain GC 4553
[16] = broth dilution, 18 hours at 35° C., strain GC 4554
[17] = broth dilution, 18 hours at 35° C., strain GC 4556
[18] = broth dilution, 18 hours at 35° C., strain GC 4557
[19] = broth dilution, 18 hours at 35° C., strain GC 4558
[20] = Staphylococcus aureus (ATCC 29213)
[21] = Staphylococcus aureus (GC 1131)
[22] = Staphylococcus aureus (GC 4541)
[23] = Staphylococcus aureus (GC 4542)
[24] = Staphylococcus aureus (GC 4544)
[25] = Staphylococcus aureus (GC 4545)
[26] = broth dilution, strain ATCC 29213
[27] = Streptococcus agalactiae (GC 4564)
[28] = Streptococcus pneumoniae (GC 4565)

For “β-O-[(Cyclohexylamino)carbonyl]-cyclo[glycyl-β-methylphenylalanyl-O-(4-O-hexonyranosylhexopyranosyl)tyrosyl-3-(2-iminoimidazolidin-4-yl)seryl-3-(3-hexopyranosyl-2-iminoimidazolidin-4-yl)serylseryl] [Example 256a]”, the “MIC Enterococcus avium (GC 4558)” value ([1]; Enterococcus avium (GC 4558)) was over 64 µg/mL, the “MIC Enterococcus faecalis (ATCC 29212)” value [1, 6] was over 64 µg/mL and the “MIC Enterococcus faecalis (GC 2242)” value [1, 7] was over 64 µg/mL. For the same substance, the “MIC Enterococcus faecalis (GC 4552)” value [1, 8] was over 64 µg/mL, the “MIC Enterococcus faecalis (GC 4553)” value [1, 9] was over 64 µg/mL and the “MIC Enterococcus faecalis (GC 4554)” value [1, 10] was over 64 µg/mL. The “MIC Enterococcus faecium (GC 2243)” value ([1]; Enterococcus faecium (GC 2243)) was over 64 µg/mL, the “MIC Enterococcus faecium (GC 4556)” value ([1]; Enterococcus faecium (GC 4556)) was over 64 µg/mL and the “MIC Enterococcus faecium (GC 4557)” value ([1]; Enterococcus faecium (GC 4557)) was 32 µg/mL. For the same substance, the “MIC Enterococcus faecalis (ATCC 29212)” value [1, 11] was over 64 µg/mL, the “MIC Enterococcus faecalis (GC 2242)” value [1, 12] was over 64 µg/mL and the “MIC Enterococcus faecium (GC 2243)” value [1, 13] was over 64 µg/mL. The “MIC Enterococcus faecalis (GC 4552)” value [1, 14] was over 64 µg/mL, the “MIC Enterococcus faecalis (GC 4553)” value [1, 15] was over 64 µg/mL and the “MIC Enterococcus faecalis (GC 4554)” value [1, 16] was over 64 µg/mL. For the same substance, the “MIC Enterococcus faecium (GC 4556)” value [1, 17] was over 64 µg/mL, the “MIC Enterococcus faecium (GC 4557)” value [1, 18] was 32 µg/mL and the “MIC Enterococcus avium (GC 4558)” value [1, 19] was over 64 µg/mL. For the same substance, the “MIC Escherichia coli (GC 4559)” value [2] was over 64 µg/mL, the “MIC Escherichia coli (GC 4560)” value [2] was 8 µg/mL and the “MIC Coagulase Negative Staphylococcus (GC 4547)” value [3] was over 64 µg/mL. For the same substance, the “MIC Coagulase Negative Staphylococcus (GC 4548)” value [3] was over 64 µg/mL, the “MIC Coagulase Negative Staphylococcus (GC 4549)” value [3] was over 64 µg/mL and the “MIC Coagulase Negative Staphylococcus (GC 4551)” value [3] was over 64 µg/mL. For the same substance, the “MIC Coagulase Negative Staphylococcus (ID-3941)” value ([3]; Coagulase Negative Staphylococcus (ID-3941)) was 64 µg/mL, the “MIC Staphylococcus aureus (ATCC 29213)” value [3, 20] was over 64 µg/mL and the “MIC Staphylococcus aureus (GC 1131)” value [3, 21] was over 64 µg/mL. The “MIC Staphylococcus aureus (GC 4541)” value [3, 22] was over 64 µg/mL, the “MIC Staphylococcus aureus (GC 4542)” value [3, 23] was over 64 µg/mL and the “MIC Staphylococcus aureus (GC 4544)” value [3, 24] was over 64 µg/mL. For the same substance, the “MIC Staphylococcus aureus (GC 4545)” value [3, 25] was over 64 µg/mL, the “MIC Staphylococcus aureus-SMITH (GC 4543)” value [3] was over 64 µg/mL and the “MIC Staphylococcus haemolyticus (GC 4546)” value [3] was over 64 µg/mL. For the same substance, the “MIC Staphylococcus aureus (ATCC 29213)” value [3, 26] was over 64 µg/mL, the “MIC Staphylococcus aureus (GC 1131)” value ([3]; broth dilution, strain GC 1131) was over 64 µg/mL and the “MIC Staphylococcus aureus (GC 4541)” value ([3]; broth dilution, strain GC 4541) was over 64 µg/mL. The “MIC Staphylococcus aureus (GC 4542)” value ([3]; broth dilution, strain GC 4542) was over 64 µg/mL, the “MIC Staphylococcus aureus (GC 4544)” value ([3]; broth dilution, strain GC 4544) was over 64 µg/mL and the “MIC Staphylococcus aureus (GC 4545)” value ([3]; broth dilution, strain GC 4545) was over 64 µg/mL. For the same substance, the “MIC Streptococcus agalactiae (GC 4564)” value [4, 27] was over 64 µg/mL, the “MIC Streptococcus pneumoniae (GC 4565)” value [4, 28] was 64 µg/mL and the “MIC Streptococcus pyogenes (ID-3187)” value ([4]; Streptococcus pyogenes (ID-3187)) was 64 µg/mL. The “MIC Streptococcus agalactiae (GC 4564)” value ([4]; broth dilution, strain GC 4564) was over 64 µg/mL, the “MIC Streptococcus pneumoniae (GC 4565)” value ([4]; broth dilution, strain GC 4565) was 64 µg/mL and the “MIC Streptococcus pyogenes (ID-3187)” value ([4]; broth dilution, strain ID-3187) was 64 µg/mL. The “MIC Escherichia coli (ATCC 25922)” value [5] was over 64 µg/mL.

With “β-O-[(N-Methyl-2-methylpropylamino)carbonyl]-cyclo[glycyl-β-methylphenylalanyl-O-(4-O-hexopyranosylhexopyranosyl)tyrosyl-3-(2-iminoimidazolidin-4-yl)seryl-3-(3-hexopyranosyl-2-iminoimidazolidin-4-yl)serylseryl] [Example 255a]” the “MIC Enterococcus avium (GC 4558)” value ([1]; Enterococcus avium (GC 4558)) was over 0.5 µg/mL, the “MIC Enterococcus faecalis (ATCC 29212)” value [1, 6] was over 0.5 µg/mL and the “MIC Enterococcus faecalis (GC 2242)” value [1, 7] was over 0.5 µg/mL. The “MIC Enterococcus faecalis (GC 2691)” value ([1]; Enterococcus faecalis (GC 2691), 18 hours at 35° C.) was over 0.5 µg/mL, the “MIC Enterococcus faecalis (GC 3059)” value ([1]; Enterococcus faecalis (GC 3059), 18 hours at 35° C.) was over 0.5 µg/mL and the “MIC Enterococcus faecalis (GC 4552)” value [1, 8] was over 0.5 µg/mL. The “MIC Enterococcus faecalis (GC 4553)” value [1, 9] was over 0.5 µg/mL, the “MIC Enterococcus faecalis (GC 4554)” value [1, 10] was over 0.5 µg/mL and the “MIC Enterococcus faecalis (GC 6189)” value ([1]; Enterococcus faecalis (GC 6189)) was over 0.5 µg/mL. The “MIC Enterococcus faecium (GC 2243)” value ([1]; Enterococcus faecium (GC 2243)) was over 64 µg/mL, the “MIC Enterococcus faecium (GC 4556)” value ([1]; Enterococcus faecium (GC 4556)) was over 64 µg/mL and the “MIC Enterococcus faecium (GC 4557)” value ([1]; Enterococcus faecium (GC 4557)) was 32 µg/mL. The “MIC Enterococcus faecalis (ATCC 29212)” value [1, 11] was over 0.5 µg/mL, the “MIC Enterococcus faecalis (GC 2242)” value [1, 12] was over 0.5 µg/mL and the “MIC Enterococcus faecium (GC 2243)” value [1, 13] was over 64 µg/mL. For the same substance, the “MIC Enterococcus faecalis (GC 2691)” value ([1]; broth dilution, 18 hours at 35° C., strain GC 2691) was over 0.5 µg/mL, the “MIC Enterococcus faecalis (GC 3059)” value ([1]; broth dilution, 18 hours at 35° C., strain GC 3059) was over 0.5 µg/mL and the “MIC Enterococcus faecalis (GC 4552)” value [1, 14] was over 0.5 µg/mL. For the same substance, the “MIC Enterococcus faecalis (GC 4553)” value [1, 15] was over 0.5 µg/mL, the “MIC Enterococcus faecalis (GC 4554)” value [1, 16] was over 0.5 µg/mL and the “MIC Enterococcus faecium (GC 4556)” value [1, 17] was over 64 µg/mL. The “MIC Enterococcus faecium (GC 4557)” value [1, 18] was 32 µg/mL, the “MIC Enterococcus avium (GC 4558)” value [1, 19] was over 0.5 µg/mL and the “MIC Enterococcus faecalis (GC 6189)” value ([1]; broth dilution, 18 hours at 35° C., strain GC 6189) was over 0.5 µg/mL. The “MIC Escherichia coli (GC 4559)” value [2] was over 0.5 µg/mL, the “MIC Escherichia coli (GC 4560)” value [2] was 0.5 µg/mL and the “MIC Coagulase Negative Staphylococcus (GC 4547)” value [3] was 64 µg/mL. For the same substance, the “MIC Coagulase Negative Staphylococcus (GC 4548)” value [3] was over 64 µg/mL, the “MIC Coagulase Negative Staphylococcus (GC 4549)” value [3] was 64 µg/mL and the “MIC Coagulase Negative Staphylococcus (GC 4551)” value [3] was over 64 µg/mL. The “MIC Coagulase Negative Staphylococcus (GC 6257)” value ([3]; Coagulase Negative Staphylococcus (GC 6257)) was 64 µg/mL, the “MIC Staphylococcus aureus (ATCC 29213)” value [3, 20] was over 0.5 µg/mL and the “MIC Staphylococcus aureus (GC 1131)” value [3, 21] was over 0.5 µg/mL. The “MIC Staphylococcus aureus (GC 3051)” value ([3]; Staphylococcus aureus (GC 3051)) was 0.5 µg/mL, the “MIC Staphylococcus aureus (GC 3053)” value ([3]; Staphylococcus aureus (GC 3053)) was 0.5 µg/mL and the “MIC Staphylococcus aureus (GC 4541)” value [3, 22] was over 0.5 µg/mL. The “MIC Staphylococcus aureus (GC 4542)” value [3, 23] was over 0.5 µg/mL, the “MIC Staphylococcus aureus (GC 4544)” value [3, 24] was over 0.5 µg/mL and the “MIC Staphylococcus aureus (GC 4545)” value [3, 25] was over 0.5 µg/mL. The “MIC Staphylococcus aureus-SMITH (GC 4543)” value [3] was over 0.5 µg/mL, the “MIC Staphylococcus haemolyticus (GC 4546)” value [3] was 64 µg/mL and the “MIC Staphylococcus aureus (ATCC 29213)” value [3, 26] was over 0.5 µg/mL. The “MIC Staphylococcus aureus (GC 1131)” value ([3]; broth dilution, strain GC 1131) was over 0.5 µg/mL, the “MIC Staphylococcus aureus (GC 3051)” value ([3]; broth dilution, strain GC 3051) was 0.5 µg/mL and the “MIC Staphylococcus aureus (GC 3053)” value ([3]; broth dilution, strain GC 3053) was 0.5 µg/mL. For the same substance, the “MIC Staphylococcus aureus (GC 4541)” value ([3]; broth dilution, strain GC 4541) was over 0.5 µg/mL, the “MIC Staphylococcus aureus (GC 4542)” value ([3]; broth dilution, strain GC 4542) was over 0.5 µg/mL and the “MIC Staphylococcus aureus (GC 4544)” value ([3]; broth dilution, strain GC 4544) was over 0.5 µg/mL. For the same substance, the “MIC Staphylococcus aureus (GC 4545)” value ([3]; broth dilution, strain GC 4545) was over 0.5 µg/mL, the “MIC Streptococcus agalactiae (GC 4564)” value [4, 27] was 64 µg/mL and the “MIC Streptococcus pneumoniae (GC 4565)” value [4, 28] was 32 µg/mL. The “MIC Streptococcus pyogenes (GC 4563)” value ([4]; Streptococcus pyogenes (GC 4563)) was 32 µg/mL, the “MIC Streptococcus pyogenes (GC 4563)” value ([4]; broth dilution, strain GC 4563) was 32 µg/mL and the “MIC Streptococcus agalactiae (GC 4564)” value ([4]; broth dilution, strain GC 4564) was 64 µg/mL. The “MIC Streptococcus pneumoniae (GC 4565)” value ([4]; broth dilution, strain GC 4565) was 32 µg/mL and the “MIC Escherichia coli (ATCC 25922)” value [5] was over 0.5 µg/mL.
